According to PMC7311950, “Potent Tetrahydroquinolone Eliminates Apicomplexan Parasites” (Frontiers in Cellular and Infection Microbiology, 2020):
Read-outs that look alike come from different tables or passages of the source.

Legend:
HepG2 cells = assay: Cytotoxicity with HepG2 cells; assay type: cell-based; conditions: Homo sapiens
Description: Toxicity studies also were performed with HepG2 cells (human liver cancer immortal cell line derived from the liver tissue of a […]) in parallel with the studies of P. falciparum, with inhibitors in vitro, as described in McPhillie et al. ([2016]).

[1] = tested on: P. falciparum strains D6, TM91-C235, W2, C2B; assay: Malaria SYBR Green I-Based Fluorescence (MSF) assay; assay type: cell-based; conditions: Plasmodium falciparum
Description: Malaria potency testing in vitro was performed using 4 different P. falciparum strains, D6, TM91-C235, W2, and C2B. The D6 strain is a drug sensitive strain from Sierra Leone, the TM91-C235 strain is a multi-drug resistant strain from Thailand, the W2 strain is a chloroquine resistant strain from Thailand, and the C2B strain is a multi-drug resistant strain with resistance against atovaquone. These assays were performed as described below.
Compound activity against P. falciparum, was tested using the Malaria SYBR Green I–Based Fluorescence (MSF) Assay. The complete method for performing this microtiter assay is described in previous work published by Plouffe et al. ([2008]) and Johnson et al. ([2007]). In brief, this assay uses the binding of the fluorescent dye SYBR Green I to malaria DNA to measure parasite growth in the presence of 2-fold diluted experimental or control. The relative fluorescence of the intercalated SYBR Green I proportional to parasite growth, and inhibitory compounds will result in lower observed fluorescence compared to untreated parasites.

[2] = tested on: T. gondii EGS strain bradyzoites; assay: In vitro challenge assay for EGS strain bradyzoites; assay type: cell-based, Toxoplasma gondii; conditions: for number of true cysts and small organisms: EGS strain, at 1 and 10 μM, immunofluorescence microscopy; for IC50: EGS strain in HFF, Figure 1A, read-out: Brady IC50
Description: HFF cells were grown in IMDM on removable, sterile glass cover slips in the bottom of a clear, flat-bottomed 24-well plate. Cultures were infected with 3 × 10^4 EGS strain parasites per well, in 0.5 mL media. The plate was returned to incubator at 37°C overnight. The following day, the media was removed. Colorless IMDM and compounds were added to make various concentrations of the drug. Total volume was 0.5 mL. Two wells had media only, as a control. Plates were returned to the 37°C incubator for 72 h, checked once each 24 h. If tachyzoites were visible in the control before 72 h, cells were fixed and stained. Cells were fixed using 4% paraformaldehyde and stained with Fluorescein-labeled Dolichos Biflorus Agglutinin, DAPI, and antibody to BAG1. Disks were removed, mounted on glass slides, and visualized using microscopy (Nikon Tl7). Slides were scanned using a CRi Panoramic Scan Whole Slide Scanner and viewed using Panoramic Viewer Software. Effects of compounds were quantitated by counting cysts in controls and treated cultures. Dolichos staining delimited structures and single organisms that remained were counted in a representative field of view. This was then multiplied by a factor determined by the total area of the cover slip in order to estimate the number of cysts and organisms in each condition. When the following forms were observed: “true cysts” with a dolichos-staining wall, “pseudocysts” or tight clusters of parasites, and small organisms, if there were fewer than four parasites visible in a cluster, organisms were counted individually (as “small organisms”). The entire scanned coverslip with all fields was also reviewed by 3 observers to confirm consistency.

[3] = tested on: T. gondii RH-YFP tachyzoites; assay: In vitro challenge assay, RH strain YFP tachyzoites in HFF; assay type: cell-based; conditions: Toxoplasma gondii
T. gondii RPS13Δ = assay: RPS13Δ infection of interferon γ receptor knockout mice; assay type: in vivo, Toxoplasma gondii; conditions: mice to start 5 (Tafenoquine), 5 (JAG21)
Description: In pilot studies, herein, interferon γ receptor knockout mice that were not treated were observed following infection. At 7 and at 14 days following infection, spleen, and liver were removed and immune peroxidase stained. At 14 days a group of mice were treated with anhydrotetracycline and when a subset of these mice died, their spleen and liver were removed and immune peroxidase stained.
As in the pilot studies, this RPS13 Δ parasite also was used to infect interferon γ receptor knockout mice in a treatment study. In this separate study, groups of mice were infected with RPS13 Δ. They were treated with tafenoquine on day−1, or JAG21 for 14 days 2 h after infection, or the two together with tafenoquine on day−1 and JAG21 for the first 14 days, or with diluent only for 14 days, as described above. For the initial 14 days, no tetracycline was administered. After that time tetracycline was administered. Mice were observed each day. At the time they appeared to have substantial illness or at the termination of the experiment they were euthanized, tissues fixed in formalin and stained with hematoxylin and eosin or immunoperoxidase stained and parasite burden was assessed.

[4] = dose response testing, read-out: HEP G2 IC50
[5] = C2B, multi-drug resistant strain with resistance against atovaquone, read-out: SYBR Green C2B IC50
[6] = D6, drug sensitive strain, read-out: SYBR Green D6 IC50
[7] = TM91-C235, multi-drug resistant strain, read-out: SYBR Green C235 IC50
[8] = W2, chloroquine resistant strain, read-out: SYBR Green W2 IC50
[9] = RH-YFP tachyzoites in HFF, Figure 1A, read-out: Tachy IC50
[10] = T. gondii tachyzoites, initial library, read-out: IC50

| SMILES | IC50 (HepG2 cells; [4]) | IC50 [1, 5] | IC50 [1, 6] | IC50 [1, 7] | IC50 [1, 8] | number of true cysts and small organisms [2] | IC50 ([2]; Toxoplasma gondii) | IC50 [3, 9] | IC50 [3, 10] | IC50 (HepG2 cells; supplement summary, read-out: IC50, human HepG2 cells) | IC50 ([1]; D6, TM91-C235, W2 and C2B, range over strains, read-out: IC50 values against drug sensitive and resistant strains) | IC90 ([1]; supplement summary, read-out: IC90, drug resistant Plasmodium falciparum in vitro) | EGS bradyzoites in treated cultures ([2]; 500 nM) | IC90 ([2]; Toxoplasma gondii, supplement summary) | number of mice left at 42 (T. gondii RPS13Δ; Experiment 1, 6 (Tafenoquine+JAG21)) | number of mice left at 37 (T. gondii RPS13Δ; Experiment 2, 9 (Tafenoquine+JAG21)) | IC90 ([3]; supplement summary) |
| --- | --- | --- | --- | --- | --- | --- | --- | --- | --- | --- | --- | --- | --- | --- | --- | --- | --- |
| Cc1[nH]c2c(c(=O)c1-c1ccc(Oc3ccc(Cl)cc3)cc1)CCCC2 [JAG50] | 7100 nM | 36.4 nM | 46.6 nM | 69.1 nM | 31.4 nM | statistically significant reduction | 2000 nM | 85 nM | 33 nM | – | – | – | – | – | – | – | – |
| Cc1[nH]c2c(c(=O)c1-c1ccc(Oc3ccc(OC(F)(F)F)cc3)cc1)CCCC2 [JAG21, 2-Methyl-3-(4-(4-(Trifluoromethoxy)Phenoxy)Phenyl)-5,6,7,8-Tetrahydroquinolin-4-One] | 17700 nM | 40.4 nM | 14.3 nM | 61.6 nM | 55.2 nM | statistically significant reduction | 2000 nM | 120 nM | 55 nM | > 17000 nM | 14 to 61 nM | < 50 nM | we do not see EGS bradyzoites | < 1000 nM | 2 | 3 | < 50 nM |
